Data: article PMC13242511, “Disrupting Notch signalling by a small molecule inhibiting dihydroorotate dehydrogenase activity” (Scientific Reports, 2026)
“And” between values parts separate entries of the source, which are not always exact repeats. Identical values can stand only once.

Legend:
Type in all cases: cell-based
γ-secretase complex = γ-secretase complex (Homo sapiens, UniProt P49768); test: APP-C99 counter assay (GSI reporter assay); set-up: AUC APP: scale not given here
Procedure, shortened: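 Cells transfected with APP-C99 firefly luciferase reporter plus renilla normalization plasmid, seeded 24 h later onto compound plates and cultured 24 h. Dual luciferase read in triplicate per concentration; IC50 from variable-slope log(inhibitor) fit, with AUC also calculated from dose–response curves.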

NOTCH1 = test: Western blot analysis of S3-cleaved NOTCH1 (a-N1-V1744); settings: Western blot quantification, Supplemental Figure 4K
Method: Cells were washed in ice-cold PBS and incubated for 30 min on ice with RIPA cell lysis buffer (Thermofisher, cat #89900) containing protease and phosphatase inhibitors (Thermofisher, cat #78442), scraped off and homogenized using a 25G syringe, and subsequently centrifugated for 10 min at > 13,000xg. […] After electrophoresis, gels were placed directly onto a TransBlot Turbo PVDF or nitrocellulose membrane (Bio-rad, cat #1704157 and cat #1704159) and transferred using the “HIGH MW” protocol (Bio-Rad). Subsequently, membranes were blocked for 1 h at room temperature using Clear Milk Blocking Buffer (ThermoFisher, cat #37587) supplemented with 0.1% Tween20 (Sigma-Aldrich, cat #P1379). Detection of antibody binding was performed by using Clarity Western ECL-Substrate (Bio-rad, cat #1705060S). Beta-Actin protein signals were used as a loading control. Western blot membranes were in some experiments stripped after development (indicated in the figure in each respective case) by washing the membranes twice for 10 min in PBS, followed by incubation in membranes in western blot stripping buffer (ThermoFisher, cat #21059) for 30 min at room temperature and gentle agitation. Stripped membranes were washed twice with PBS and incubated for 30 min in blocking buffer before incubation with primary antibody. A list of all antibodies used in this study is provided in Supplemental Table 6. Uncropped western blot images are provided in […]. Protein expression levels of western blot bands were quantified using Fiji (V.2.16) with beta-Actin signals for normalisation (Supplemental Table 8). Uncropped western blot images are provided in Supplemental Fig. 10.

C2C12 cells = test: C2C12 myogenic assay; set-up: key to mean fusion index: ratio of nuclei fused per area to total nuclei in field
Text: To corroborate their status as Notch inhibitors, we tested four of the five compounds (A, C, D, E) in an orthogonal assay for Notch function. Notch signalling plays an important role in myogenic differentiation, and blocking Notch signalling promotes myogenic differentiation in the myoblast cell line C2C12[27] (Fig. 5A). C2C12 cells can be maintained as myoblasts but upon serum starvation spontaneously differentiate to MYH4-positive multinucleated myotubes, a process which is accelerated by Notch blockade.
8000 C2C12 cells were seeded on gelatin (0.1%, Sigma-Aldrich, cat #G2500) coated cover slides (BD Bioscience) and cultivated in proliferation medium. For gelatin coating, 8-well cover slide chambers (BD Bioscience) were incubated for 60 min with 0.1% gelatin in PBS. The remaining liquid was aspirated, and gelatin was allowed to dry for 24 h. Cover slides were stored at 4 °C until use. Upon reaching 85% confluence cell culture medium was exchanged to differentiation medium to enhance differentiation into myocytes/myotubes. Cells were then treated with 10 µM of the respective compound for five days and DMSO-treated cells served as a base-line control. Next, cells were washed with 1 × cold PBS (ThermoFisher, cat #10010023) fixed with 4% paraformaldehyde (PFA, Sigma-Aldrich, cat #1.00496) in PBS for 10 min at room temperature and washed again with 1 × PBS. Fixed cells were either stored at 4 °C in PBS or directly processed for immunocytochemistry staining: For immunocytochemistry, cells were permeabilized for 10 min in 0.1% TritonX-100 / PBS, then washed in PBS and unspecific bindings sites were blocked in protein free blocking solution (DAKO, cat # × 0909) for 30 min at room temperature, followed by two times washing in PBS. Then, cells were incubated with primary antibody MYH4 (ThermoFisher) in blocking solution and 0.1% TritonX-100 in PBS for 1 h at room temperature. Next, cells were washed three times in PBS and incubated with secondary Alexa fluorophore coupled antibody (Invitrogen) in a 1:400 dilution. Labeling of F-actin filaments was conducted by phalloidin-TRITC (Sigma-Aldrich, cat # P1951) in a 1:2500 dilution. Cells were washed three times in PBS and incubated with DAPI (BD Bioscience cat # 564907) for 5 min at room temperature to stain DNA/nuclei. Finally, slides were fixed with mounting medium (ProLong Antifade mounting medium, ThermoFisher, cat #P36934). Bright field and immunocytochemistry images were taken using the SP8 LSM (Leica) at different magnifications and images were recorded as Z-stacks. Images were processed using the FijI (ImageJ) software. As controls, wells with and without differentiation medium were also stained to set the baseline and contrast the differences and stainings of cells with only secondary antibodies were used as negative controls to assess cross-reactivity and background staining. For calculating the MYH4 median fluorescence intensity (MFI) images have been converted into 8-bit greyscale and a standard color threshold was applied (ImageJ). Next, MFI signals per area were measured using ImageJ and divided by the median background intensity (MBI). The nuclei fusion index was calculated as the ratio of nuclei fused per area divided by the total number of nuclei in the field. A minimum of three images has been recorded for the calculations, and two replicate experiments were conducted. For calculations of MFI and fusion index see Supplemental Table 5.

[1] = overview in comparison to compound C, Supplemental Fig. 9

Hill-Slope 9p APP counter assay averaged (γ-secretase complex; 9p dose response): -2.0
AUC 9p APP-counter assay (γ-secretase complex; 9p dose response, AUCs averaged when replicates available): 3.16E+02
curve fit information (γ-secretase complex; 14p APP assay DR, Notch inhibitor controls, no bottom constraint named): IC50 indeterminate
AUC. 14p APP-counter assay (γ-secretase complex; 14p dose response, AUCs averaged when replicates available): 5.48E+02
AUC APP (γ-secretase complex; area under the 14-point dose-response curve, replicates averaged): 548.4
APP assay (γ-secretase complex; [1]): weak potency
SMILES: CC(C)(C)c1ccc(Oc2ccc(N)cn2)cc1 [CB-103, reference compound]
V1744 (activated N1) band intensity (NOTCH1): 20841.8
V1744 normalised to beta-actin signals (NOTCH1): 0.8
V1744, DMSO as reference (NOTCH1; DMSO = 1): 0.6093
expression of the differentiation marker MYH4 (C2C12 cells; 10 µM, five days): increased MYH4 levels, although not reaching statistical significance
mean MFI in % of control (C2C12 cells; 10 µM, five days, DMSO ctrl = 100, experiments #1 and #2): 378.0 % of control and 227.3 % of control
mean MFI (C2C12 cells; 10 µM, five days, MYH4, experiments #1 and #2): 3.6 and 4.6
mean fusion index (C2C12 cells; 10 µM, five days, experiments #1 and #2): 5.7 and 3.1
ratio nuclei % (C2C12 cells; 10 µM, five days, single images, experiments #1 and #2): 5.0% and 6.3% and 5.7% and 3.1%
myogenic diff. (C2C12 cells; [1]): no
